The target of the test is T1, human PAH with the R408W mutation (Homo sapiens, UniProt P00439, R408W).
T1 construct: expressed in transfected cells
T1 sequence (P00439 1-452 R408W): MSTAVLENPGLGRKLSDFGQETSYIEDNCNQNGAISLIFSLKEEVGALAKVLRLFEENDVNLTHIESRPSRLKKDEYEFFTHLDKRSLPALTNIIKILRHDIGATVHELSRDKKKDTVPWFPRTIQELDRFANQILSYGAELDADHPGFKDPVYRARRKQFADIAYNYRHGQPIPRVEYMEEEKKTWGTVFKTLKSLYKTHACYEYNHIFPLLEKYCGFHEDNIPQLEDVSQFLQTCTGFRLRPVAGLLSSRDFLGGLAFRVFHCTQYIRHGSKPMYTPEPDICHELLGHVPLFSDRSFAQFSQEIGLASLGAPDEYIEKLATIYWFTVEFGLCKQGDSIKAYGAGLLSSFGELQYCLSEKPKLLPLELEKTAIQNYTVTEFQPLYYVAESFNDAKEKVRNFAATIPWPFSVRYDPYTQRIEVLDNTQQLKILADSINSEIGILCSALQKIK
In words: Cell Based Phenylalanine Flux Assay. As to conditions: A375 cells expressing human R408W PAH, 13C-Tyrosine by LC-MS, average where tested multiple times, read-out: AC50.

Each structure is given as a SMILES string. Like-named read-outs stand apart in the source and are kept apart here.

`O=C(c1cnn2ccccc12)N1CCc2[nH]cnc2[C@H]1c1nc2cccc(F)c2s1` [Example 1109, (S)-(4-(7-fluorobenzo[d]thiazol-2-yl)-6,7-dihydro-1H-imidazo[4,5-c]pyridin-5(4H)-yl)(pyrazolo[1,5-a]pyridin-3-yl)methanone]: the AC50 (24 hrs compound incubation) lay within 0.5 to 1 µM.

On to `O=C(c1nc2ccccc2s1)N1CCc2[nH]cnc2C1c1nc2cc(F)ccc2s1` (stereo not shown), for which, for the setting “24 hrs with compound”, the half-maximal activity concentration (AC50) lay in the range of 1 to 5 µM. Same read-out and setting: then `Cn1nnc(C(=O)N2CCc3[nH]cnc3C2c2nc3c(F)cccc3s2)n1` (stereo not shown), with over 5 µM; and `O=C(c1cnn2cc(C=Cc3ccccc3)ccc12)N1CCc2[nH]cnc2C1c1nc2ccccc2s1` (stereo not shown), with over 5 µM. Consider `CCn1cnnc1C(=O)N1CCc2[nH]cnc2[C@@H]1c1nc2ccccc2s1` [Example 2077, (R)-(4-(benzo[d]thiazol-2-yl)-6,7-dihydro-1H-imidazo[4,5-c]pyridin-5(4H)-yl)(4-ethyl-4H-1,2,4-triazol-3-yl)methanone], for which the AC50 (24 hrs compound incubation) is over 5 µM. Same read-out and setting: in the case of `Cc1nc(CC2CC2)oc1C(=O)N1CCc2[nH]cnc2[C@@H]1c1nc2ccccc2s1` [Example 1400, (R)-(4-(benzo[d]thiazol-2-yl)-6,7-dihydro-1H-imidazo[4,5-c]pyridin-5(4H)-yl)(2-(cyclopropylmethyl)-4-methyloxazol-5-yl)methanone] it was 1 to 5 µM. On the same count and under the same terms, then `CC(C)(O)c1nc(C#N)c(C(=O)N2CCc3[nH]cnc3[C@H]2c2nc3ccccc3s2)o1` [Example 1697, (S)-5-(4-(benzo[d]thiazol-2-yl)-4,5,6,7-tetrahydro-1H-imidazo[4,5-c]pyridine-5-carbonyl)-2-(2-hydroxypropan-2-yl)oxazole-4-carbonitrile], with 0.5 to 1 µM; and `COCc1ncc(C(=O)N2CCc3[nH]cnc3[C@H]2c2nc3c(F)cccc3s2)s1` [Example 1703, (S)-(4-(4-fluorobenzo[d]thiazol-2-yl)-6,7-dihydro-1H-imidazo[4,5-c]pyridin-5(4H)-yl)(2-(methoxymethyl)thiazol-5-yl)methanone], with 0.5 to 1 µM; and `O=C(c1cnn2ccc(F)cc12)N1CCc2[nH]cnc2[C@H]1c1nc2ccccc2[nH]1` [Example 944, (S)-(4-(1H-benzo[d]imidazol-2-yl)-6,7-dihydro-1H-imidazo[4,5-c]pyridin-5(4H)-yl)(5-fluoropyrazolo[1,5-a]pyridin-3-yl)methanone], with 0.5 to 1 µM. Take `Cc1nc(CCN2CC(F)C2)oc1C(=O)N1CCc2[nH]cnc2C1c1nc2ccccc2s1` (stereo not shown): the AC50 (24 hrs with compound) was over 5 µM. On to `N#Cc1ccn2ncc(C(=O)N3CCc4[nH]cnc4[C@H]3c3nc4ccccc4s3)c2c1` [Example 1085, (S)-3-(4-(benzo[d]thiazol-2-yl)-4,5,6,7-tetrahydro-1H-imidazo[4,5-c]pyridine-5-carbonyl)pyrazolo[1,5-a]pyridine-5-carbonitrile], for which the AC50 (24 hrs compound incubation) is under 0.5 µM. As to `O=C(c1cnn2cccc(F)c12)N1CCc2[nH]cnc2C1c1nc2ccc(Cl)cc2[nH]1` (stereo not shown), for the setting “24 hrs with compound”, the AC50 is over 5 µM. For `Cc1nc(C)c(C(=O)N2CCc3[nH]cnc3[C@@H]2c2nc3ccccc3s2)s1` [Example 1178, (R)-(4-(benzo[d]thiazol-2-yl)-6,7-dihydro-1H-imidazo[4,5-c]pyridin-5(4H)-yl)(2,4-dimethylthiazol-5-yl)methanone], the half-maximal activity concentration (AC50) (24 hrs compound incubation) was over 5 µM. In the case of `CC(=O)N1CCc2[nH]cnc2C1c1nc2ccccc2s1` (stereo not shown), the half-maximal activity concentration (AC50) (24 hrs with compound) was over 5 µM. For `N#Cc1ncoc1C(=O)N1CCc2[nH]cnc2[C@H]1c1nc2c(F)cccc2s1` [Example 1661, (S)-5-(4-(4-fluorobenzo[d]thiazol-2-yl)-4,5,6,7-tetrahydro-1H-imidazo[4,5-c]pyridine-5-carbonyl)oxazole-4-carbonitrile], where the note is “24 hrs compound incubation”, the AC50 was 0.5 to 1 µM. Still for that read-out and setting: then `O=C(CCc1nccs1)N1CCc2[nH]cnc2[C@H]1c1nc2cccc(F)c2s1` [Example 1035, (S)-1-(4-(7-fluorobenzo[d]thiazol-2-yl)-6,7-dihydro-1H-imidazo[4,5-c]pyridin-5(4H)-yl)-3-(thiazol-2-yl)propan-1-one], with 0.5 to 1 µM; and `O=C(c1oc(-c2ccccn2)nc1C1CC1)N1CCCc2[nH]cnc2[C@@H]1c1nc2ccccc2s1` [Example 2120, (R)-(4-(benzo[d]thiazol-2-yl)-7,8-dihydroimidazo[4,5-c]azepin-5(1H,4H,6H)-yl)(4-cyclopropyl-2-(pyridin-2-yl)oxazol-5-yl)methanone], with 1 to 5 µM. As for `O=C(c1ccnn1-c1ccccn1)N1CCc2[nH]cnc2[C@H]1c1nc2c(F)cccc2s1` [Example 1757, (S)-(4-(4-fluorobenzo[d]thiazol-2-yl)-6,7-dihydro-1H-imidazo[4,5-c]pyridin-5(4H)-yl)(1-(pyridin-2-yl)-1H-pyrazol-5-yl)methanone], the AC50 (24 hrs compound incubation) fell in the range of 0.5 to 1 µM. On to `O=C(c1nncs1)N1CCc2[nH]cnc2C1c1nc2ccccc2[nH]1` (stereo not shown), for which, under “24 hrs with compound”, the AC50 is over 5 µM. Take `C[C@H](O)c1nc(C(F)F)c(C(=O)N2CCc3[nH]cnc3[C@H]2c2nc3ccccc3s2)o1` [Example 2095]: under “24 hrs compound incubation”, the AC50 was under 0.5 µM. With `O=C(CC1CC1)N1CCc2[nH]cnc2C1c1nc2c(F)cccc2s1` (stereo not shown), for the setting “24 hrs with compound”, the AC50 was over 5 µM. As to `CC(C)(F)c1nnc(C(=O)N2CCc3[nH]cnc3[C@@H]2c2nc3ccccc3s2)o1` [Example 1833, (R)-(4-(benzo[d]thiazol-2-yl)-6,7-dihydro-1H-imidazo[4,5-c]pyridin-5(4H)-yl)(5-(2-fluoropropan-2-yl)-1,3,4-oxadiazol-2-yl)methanone], where the note is “24 hrs compound incubation”, the AC50 was in the range of 1 to 5 µM. On the same count and under the same terms, in the case of `Cc1cnn(C)c1-c1nnc(C(=O)N2CCc3[nH]cnc3[C@H]2c2nc3ccccc3s2)o1` [Example 1947] it was under 0.5 µM; in that of `Nc1cc(C(=O)N2CCc3[nH]cnc3[C@@H]2c2nc3ccccc3s2)n(C(F)F)n1` [Example 2052, (R)-(3-amino-1-(difluoromethyl)-1H-pyrazol-5-yl)(4-(benzo[d]thiazol-2-yl)-6,7-dihydro-1H-imidazo[4,5-c]pyridin-5(4H)-yl)methanone], 1 to 5 µM. On the same count and under the same terms, then `O=C(C1CN(c2ncccc2F)C1)N1CCc2[nH]cnc2[C@@H]1c1nc2ccccc2s1` [Example 1910, (R)-(4-(benzo[d]thiazol-2-yl)-6,7-dihydro-1H-imidazo[4,5-c]pyridin-5(4H)-yl)(1-(3-fluoropyridin-2-yl)azetidin-3-yl)methanone], with over 5 µM.

For `Cc1ncc(C(=O)N2CCc3[nH]cnc3C2c2nc3ccccc3s2)s1` (stereo not shown), the AC50 (24 hrs with compound) is over 5 µM.

`O=C(Cc1nc(C(F)(F)F)cs1)N1CCc2[nH]cnc2C1c1nc2ccc(F)cc2s1` (stereo not shown): the AC50 (24 hrs with compound) was 1 to 5 µM. In the case of `Cc1cc(-c2nnc(C(=O)N3CCc4[nH]cnc4[C@@H]3c3nc4ccccc4s3)o2)nn1C` [Example 1943, (R)-(4-(benzo[d]thiazol-2-yl)-6,7-dihydro-1H-imidazo[4,5-c]pyridin-5(4H)-yl)(5-(1,5-dimethyl-1H-pyrazol-3-yl)-1,3,4-oxadiazol-2-yl)methanone], the AC50 (24 hrs compound incubation) lay in the range of 1 to 5 µM. Consider `O=C(CCc1nnc(C(F)F)o1)N1CCc2[nH]cnc2C1c1nc2ccccc2s1` (stereo not shown), for which the AC50 (24 hrs with compound) is over 5 µM.

Turning to `Cc1nc(N2CCOCC2)oc1C(=O)N1CCCc2[nH]cnc2C1c1nc2ccccc2s1` (stereo not shown), the AC50 (24 hrs with compound) was over 5 µM.

With `O=C(c1cnn2cc(-c3ccccn3)ccc12)N1CCc2[nH]cnc2[C@H]1c1nc2ccccc2s1` [Example 1211], the AC50 (24 hrs compound incubation) is 0.5 to 1 µM. Turning to `O=C(N1CCc2[nH]cnc2[C@H]1c1nc2ccccc2s1)C(F)(F)C1(O)CCC1` [Example 1687], the AC50 (24 hrs compound incubation) was under 0.5 µM. The same measure, in the same setting: then `O=C(CCc1nccs1)N1CCc2[nH]cnc2[C@H]1c1nc2c(F)cccc2s1` [Example 1077, (S)-1-(4-(4-fluorobenzo[d]thiazol-2-yl)-6,7-dihydro-1H-imidazo[4,5-c]pyridin-5(4H)-yl)-3-(thiazol-2-yl)propan-1-one], with 1 to 5 µM; and `O=C(c1oc(/C=C/C2CC2)nc1C(F)(F)F)N1CCc2[nH]cnc2[C@H]1c1nc2ccccc2s1` [Example 1567], with 0.5 to 1 µM.

For the compound `CN(C)CCc1nc(C(F)(F)F)c(C(=O)N2CCc3[nH]cnc3[C@@H]2c2nc3c(F)cccc3s2)o1` [Example 1676, (R)-(2-(2-(dimethylamino)ethyl)-4-(trifluoromethyl)oxazol-5-yl)(4-(4-fluorobenzo[d]thiazol-2-yl)-6,7-dihydro-1H-imidazo[4,5-c]pyridin-5(4H)-yl)methanone], the AC50 (24 hrs compound incubation) is under 0.5 µM. On to `O=C(c1ncn2ccccc12)N1CCc2[nH]cnc2[C@H]1c1nc2c(F)cccc2s1` [Example 1143, (S)-(4-(4-fluorobenzo[d]thiazol-2-yl)-6,7-dihydro-1H-imidazo[4,5-c]pyridin-5(4H)-yl)(imidazo[1,5-a]pyridin-1-yl)methanone], for which the AC50 (24 hrs compound incubation) was in the range of 0.5 to 1 µM. As to `O=C(c1cnn2c(Br)cccc12)N1CCc2[nH]cnc2C1c1nc2ccc(Cl)cc2[nH]1` (stereo not shown), the AC50 (24 hrs with compound) was over 5 µM.

As for `CC(C)(O)Cn1ncc(C(=O)N2CCc3[nH]cnc3C2c2nc3c(F)cccc3s2)c1Cl` (stereo not shown), the AC50 (24 hrs with compound) is over 5 µM. Take `O=C(CCc1nccs1)N1CCc2[nH]cnc2[C@H]1c1nc(C2CC2)cs1` [Example 2147]: the AC50 (24 hrs compound incubation) was over 5 µM. On the same count and under the same terms, in the case of `O=C(c1ccnn1C(F)(F)F)N1CCc2[nH]cnc2[C@@H]1c1nc2c(F)cccc2s1` [Example 2100, (R)-(4-(4-fluorobenzo[d]thiazol-2-yl)-6,7-dihydro-1H-imidazo[4,5-c]pyridin-5(4H)-yl)(1-(trifluoromethyl)-1H-pyrazol-5-yl)methanone] it was 1 to 5 µM.

By AC50 is commonly meant the concentration at which the activity in the assay is half-maximal.

The values are drawn from patent publication US20250171438A1 (Agios Pharmaceuticals, Inc., priority 2022, published 2025).
